# Assay results from paper PMC9698483, “Berbamine Reduces Chloroquine-Induced Itch in Mice through Inhibition of MrgprX1” (International Journal of Molecular Sciences, 2022).
# Legend:
# [1] = biological target: T1, histamine H1 receptor (H1R) (Homo sapiens, UniProt P35367); experiment: Histamine-induced activation of H1R in H1R-expressing HEK293T cells (calcium); type: cell-based; conditions: 30 μM compound, 10 min prior to 100 μM histamine
# T1 construct: expressed in transfected cells; host or cells: HEK293T
# Method: (§1) To investigate the effect of berbamine on other pruritogenic GPCRs, we observed the effect of berbamine on histamine H1 receptor (H1R), histamine H4 receptor (H4R), MrgprC11, MrgprX4, PAR2, and TGR5.
# (§2) Figure 3 Effects of berbamine on the activity of other pruritogenic GPCRs: (A,B) Effect of berbamine on histamine 1 receptor (H1R) and histamine 4 receptor (H4R). H1R- and H4R-expressing HEK293T cells were pretreated with 30 μM BBM for 10 min prior to 100 μM histamine treatment. […] (C) Effect of berbamine on PAR2. HT29 cells were pretreated with BBM for 10 min prior to 30 μM PAR2-AP treatment. […] (D) Effect of berbamine on MrgprC11. MrgprC11-expressing HEK293T cells were pretreated with BBM for 10 min prior to 100 μM […] treatment. (E) Effect of berbamine on MrgprX4. MrgprX4-expressing HEK293T cells were pretreated with BBM for 10 min prior to 80 μM DCA treatment. (F) Effect of berbamine on TGR5. TGR5 activity was measured using a YFP fluorescence quenching assay. CHO-K1 cells coexpressing TGR5 and a halide sensor YFP were pretreated with BBM and 80 μM DCA for 10 min prior to I^- treatment. Results were summarized as means ± S.E. (n = 6). NTC, nontransfected cells.
# (§3) Intracellular calcium levels were measured using a Fluo-4 NW calcium assay kit (Invitrogen, Carlsbad, CA) as per the manufacturer’s protocol in HEK293T and HT29 cells. […]
# [2] = tested on: CQ-resistant strain of P. falciparum; parameters: method as in doi:10.1002/ddr.430300405; conditions: in vitro, compound alone; read-out: IC50 antimalaria effect, CQ-resistant strain; cited from earlier work
# [3] = biological target: T2, histamine H4 receptor (H4R) (Homo sapiens, UniProt Q9H3N8); experiment: Histamine-induced activation of H4R in H4R-expressing HEK293T cells (calcium); type: cell-based; conditions: 30 μM compound, 10 min prior to 100 μM histamine
# T2 construct: expressed in transfected cells; host or cells: HEK293T
# Method: as §1, §2, §3
# PAR2 = biological target: T3, PAR2 (Homo sapiens, UniProt P55085); experiment: PAR2-AP-induced activation of PAR2 in HT29 cells (calcium); type: cell-based; conditions: 30 μM compound, 10 min prior to 30 μM PAR2-AP
# T3 construct: endogenous in cells; host or cells: HT29
# T3 sequence (P55085 26-397): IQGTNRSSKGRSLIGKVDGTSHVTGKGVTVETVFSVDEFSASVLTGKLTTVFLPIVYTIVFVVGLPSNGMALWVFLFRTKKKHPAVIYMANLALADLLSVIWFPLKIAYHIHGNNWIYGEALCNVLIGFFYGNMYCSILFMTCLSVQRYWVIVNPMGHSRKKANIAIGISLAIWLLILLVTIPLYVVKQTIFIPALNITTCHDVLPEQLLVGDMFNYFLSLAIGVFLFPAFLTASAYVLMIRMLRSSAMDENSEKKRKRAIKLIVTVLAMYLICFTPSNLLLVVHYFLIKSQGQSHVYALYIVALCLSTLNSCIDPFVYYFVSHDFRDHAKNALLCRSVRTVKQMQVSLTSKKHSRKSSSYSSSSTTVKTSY
# Method: as §1, §2, §3
# histamine-induced itch = experiment: Histamine-induced pruritus in mice (scratching bouts); type: in vivo, BALB/c mice; conditions: 30 mg/kg i.p.
# Method: To investigate the antipruritic effect of berbamine, we observed the effect of berbamine on pruritogen-induced scratching behavior in BALB/c mice. Mice were transferred to clear cages and treated with berbamine intraperitoneally after a 30 min acclimatization period. Mouse behavior was recorded for 30 min right after the subcutaneous injection of pruritogens to the nape 30 min after berbamine treatment (Figure 7A). […] We further investigated the effect of berbamine on pruritus caused by other pruritogens.
# Figure 7 Effect of berbamine on acute pruritogen-induced pruritus in mice: (A) Scheme of acute pruritogen-induced pruritus mouse model. […] Statistical significance of differences between each group and CQ group was assessed using one-way ANOVA with Tukey’s post hoc test. * p < 0.05, ** p < 0.01, *** p < 0.001. […] Statistical significance of differences was determined using Student’s t-test. […]
# […] six-week-old BALB/c male mice were purchased from DBL (Chungcheong-do, Republic of Korea), and an additional 1 week was given for accommodation. […] After 30 min, pruritogen compounds (i.e., CQ, histamine, PAR2-AP, and DCA) were subcutaneously administered into the nape, and scratching bouts were recorded for 30 min. […] The total number of scratching bouts was counted by recording the number of scratching bouts in the recorded video over 30 min of observation time.
# HEK293T cells = experiment: Ionomycin-induced increase in intracellular calcium levels in HEK293T cells; type: cell-based; conditions: 10 μM ionomycin, 10 min pretreatment
# Method: To investigate whether berbamine and closantel affect calcium signaling pathways, we observed the effects of berbamine and closantel on CQ- and ionomycin-induced increases in intracellular calcium concentrations in HEK-MrgprX1 and HEK293T cells, respectively.
# Figure 2 Effect of berbamine and closantel on CQ- and ionomycin-induced increases in intracellular calcium levels: (A,B) Intracellular calcium levels were measured using Fluo−4 NW in HEK293T cells expressing MrgprX1. The cells were pretreated with the indicated concentrations of berbamine (BBM) and closantel (CLS) for 10 min prior to treatment with 300 μM CQ. (C) Summary of dose-response (mean ± S.E., n = 6). (D,E) Intracellular calcium levels were increased with 10 μM ionomycin in HEK239T cells. The cells were pretreated with the indicated concentrations of BBM and CLS for 10 min before treatment with ionomycin. (F) Summary of dose–response (mean ± S.E., n = 6).
# Intracellular calcium levels were measured using a Fluo-4 NW calcium assay kit (Invitrogen, Carlsbad, CA) as per the manufacturer’s protocol in HEK293T and HT29 cells. […] After 1 h of incubation, Fluo-4 fluorescence was recorded with a FLUOstar Omega microplate reader equipped with syringe pumps and custom Fluo-4 excitation/emission filters (485/538 nm). […]
# T1 sequence (P35367 whole entry, species assumed): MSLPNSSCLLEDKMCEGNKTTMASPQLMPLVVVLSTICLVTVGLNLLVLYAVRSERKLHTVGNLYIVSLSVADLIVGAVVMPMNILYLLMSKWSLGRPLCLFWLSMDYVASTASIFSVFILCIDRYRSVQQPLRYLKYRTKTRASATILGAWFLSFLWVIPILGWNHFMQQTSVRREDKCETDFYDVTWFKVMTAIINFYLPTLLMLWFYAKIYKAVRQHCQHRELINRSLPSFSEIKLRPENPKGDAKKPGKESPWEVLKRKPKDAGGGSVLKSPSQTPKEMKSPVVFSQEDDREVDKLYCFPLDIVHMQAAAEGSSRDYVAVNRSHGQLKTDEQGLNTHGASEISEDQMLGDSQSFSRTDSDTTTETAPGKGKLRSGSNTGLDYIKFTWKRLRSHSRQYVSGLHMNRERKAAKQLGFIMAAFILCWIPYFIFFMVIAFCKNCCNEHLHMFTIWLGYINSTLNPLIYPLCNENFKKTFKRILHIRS
# T2 sequence (Q9H3N8 whole entry, species assumed): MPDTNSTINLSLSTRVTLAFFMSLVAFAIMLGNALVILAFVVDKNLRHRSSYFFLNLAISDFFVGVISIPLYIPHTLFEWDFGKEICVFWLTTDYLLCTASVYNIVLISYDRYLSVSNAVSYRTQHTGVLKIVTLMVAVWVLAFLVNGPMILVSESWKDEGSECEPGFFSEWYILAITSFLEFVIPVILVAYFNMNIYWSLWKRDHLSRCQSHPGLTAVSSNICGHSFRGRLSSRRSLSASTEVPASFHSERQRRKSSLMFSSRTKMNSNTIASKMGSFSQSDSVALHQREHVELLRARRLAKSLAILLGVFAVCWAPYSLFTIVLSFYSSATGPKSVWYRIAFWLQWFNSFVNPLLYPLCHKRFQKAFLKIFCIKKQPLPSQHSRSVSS
structure (smiles),measurement,setting,value
COc1cc2c3cc1Oc1c(OC)c(OC)cc4c1[C@@H](Cc1ccc(O)c(c1)Oc1ccc(cc1)C[C@@H]3N(C)CC2)N(C)CC4 [berbamine],effect on histamine-induced activation of H1R,[1],did not affect
same,IC50,[2],359 ± 9 nM
same,effect on histamine-induced activation of H4R,[3],did not affect
same,effect on PAR2-AP-induced activation of PAR2,PAR2,did not affect
same,effect on total scratching bouts induced by histamine,histamine-induced itch,no significant effect
same,effect on ionomycin-induced increase in intracellular calcium levels,HEK293T cells,no effect
